Laboratory results reported in patent publication US8178658B2 (Dow AgroSciences, LLC, priority 2008, dated 2012).

Legend:
[1] = system: beet armyworm (BAW; Spodoptera exigua: Lepidoptera); experiment: 96-well microtiter plate-based high throughput (HTS) diet bioassay on beet armyworm (BAW HTS); format: in vivo; settings: for BAW HTS: 12 μg test compound per well, BAW eggs, mortality at 6 d post-treatment, mortality class
Procedure, shortened: (§1)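 Compound was layered onto artificial diet and dried, then infested: eggs for the 96-well test (12 μg per well, 29° C, dark) and 3–5 second instars for the 128-well tray (50 μg/cm^2, 25° C, 14:10 light-dark). Both ran six days before percent mortality was recorded and averaged across replicates or wells.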

[2] = system: beet armyworm (BAW; Spodoptera exigua: Lepidoptera); experiment: 128-well diet tray assay on beet armyworm (BAW 50); format: in vivo; settings: for BAW 50 ug/cm2: 128-well diet tray assay, 50 μg/cm^2 of test compound on diet, second instar BAW larvae, mortality class
Procedure, shortened: as §1

[3] = 96-well microtiter plate HTS diet assay

| SMILES | BAW HTS [1, 3] | pest or weed control at 12 µg/well, 12 µg/well ([1]; Spodoptera exigua, 144 h, read-out: BAW HTS) [%] | BAW 50 ug/cm2 [2] | pest or weed control at 50 µg/cm2, 50 µg/cm2 ([2]; Spodoptera exigua, 144 h, read-out: BAW 50 ug/cm2) [%] | BAW HTS ([1]; 96-well HTS diet assay) |
| --- | --- | --- | --- | --- | --- |
| COc1ccc(-c2nccc(-c3ccc(NC(=O)O[C@@H]4O[C@@H](C)[C@H](OC)[C@@H](OC)[C@H]4OC)cc3)n2)cc1 [Compound 234, {4-[2-(4-methoxyphenyl)-pyrimidin-4-yl]-phenyl}-carbamic acid (2S,3R,4R,5S,6S)-3,4,5-trimethoxy-6-methyl-tetrahydropyran-2-yl ester] | B (either (1) the compound was tested and less than 50 percent mortality was observed or (2) the compound was not tested) | < 50 | B (either (1) the compound was tested and less than 50 percent mortality was observed or (2) the compound was not tested) | < 50 |  |
| CO[C@@H]1[C@@H](OC)[C@H](C)O[C@@H](OC(=O)Nc2ccc(-c3cc(C(F)(F)F)nc(-c4ccc(C(F)(F)F)cc4)n3)cc2)[C@@H]1OC [Compound 235] | A (the compound was tested and at least 50 percent mortality was observed) |  | B (either (1) the compound was tested and less than 50 percent mortality was observed or (2) the compound was not tested) |  | A (the compound was tested and at least 50 percent mortality was observed) |
| CCCO[C@@H]1[C@@H](OC)[C@H](C)O[C@@H](OC(=O)Nc2ccc(-c3ncc(-c4ccc(OC(F)(F)F)cc4)cn3)cc2)[C@@H]1OC [Compound 236] | B (either (1) the compound was tested and less than 50 percent mortality was observed or (2) the compound was not tested) |  | A (the compound was tested and at least 50 percent mortality was observed) |  | B (either (1) the compound was tested and less than 50 percent mortality was observed or (2) the compound was not tested) |
| CCO[C@@H]1[C@@H](OC)[C@H](C)O[C@@H](OC(=O)Nc2ccc(-c3nncc(-c4ccc(OC(F)(F)F)cc4)n3)cc2)[C@@H]1OC [Compound 237] | B (either (1) the compound was tested and less than 50 percent mortality was observed or (2) the compound was not tested) |  | A (the compound was tested and at least 50 percent mortality was observed) |  | B (either (1) the compound was tested and less than 50 percent mortality was observed or (2) the compound was not tested) |
| CCO[C@@H]1[C@@H](OC)[C@H](C)O[C@@H](OC(=O)Nc2ccc(-c3cnnc(-c4ccc(OC(F)(F)F)cc4)n3)cc2)[C@@H]1OC [Compound 238] | B (either (1) the compound was tested and less than 50 percent mortality was observed or (2) the compound was not tested) |  | A (the compound was tested and at least 50 percent mortality was observed) |  | B (either (1) the compound was tested and less than 50 percent mortality was observed or (2) the compound was not tested) |
| CCO[C@@H]1[C@@H](OC)[C@H](C)O[C@@H](OC(=O)Nc2ccc(-c3ccc(-c4ccc(OC(F)(F)F)cc4)cn3)cc2)[C@@H]1OC [Compound 239] | B (either (1) the compound was tested and less than 50 percent mortality was observed or (2) the compound was not tested) |  | B (either (1) the compound was tested and less than 50 percent mortality was observed or (2) the compound was not tested) |  | B (either (1) the compound was tested and less than 50 percent mortality was observed or (2) the compound was not tested) |
| CCO[C@@H]1[C@@H](OC)[C@H](C)O[C@@H](OC(=O)Nc2ccc(-c3noc(-c4ccc(OC(F)(F)F)cc4)n3)cc2)[C@@H]1OC [Compound 240] | A (the compound was tested and at least 50 percent mortality was observed) |  | A (the compound was tested and at least 50 percent mortality was observed) |  | A (the compound was tested and at least 50 percent mortality was observed) |
| CCO[C@@H]1[C@@H](OC)[C@H](C)O[C@@H](OC(=O)Nc2ccc(N3CCN(c4ccc(OC(F)(F)F)cc4)CC3)cc2)[C@@H]1OC [Compound 241] | B (either (1) the compound was tested and less than 50 percent mortality was observed or (2) the compound was not tested) |  | B (either (1) the compound was tested and less than 50 percent mortality was observed or (2) the compound was not tested) |  | B (either (1) the compound was tested and less than 50 percent mortality was observed or (2) the compound was not tested) |
| CCO[C@@H]1[C@@H](OC)[C@H](C)O[C@@H](OC(=O)Nc2ccc(N3CC(=O)N(c4ccc(OC(F)(F)F)cc4)CC3=O)cc2)[C@@H]1OC [Compound 242] | B (either (1) the compound was tested and less than 50 percent mortality was observed or (2) the compound was not tested) |  | A (the compound was tested and at least 50 percent mortality was observed) |  | B (either (1) the compound was tested and less than 50 percent mortality was observed or (2) the compound was not tested) |
| CCO[C@@H]1[C@@H](OC)[C@H](C)O[C@@H](OC(=O)Nc2ccc(N3CC(=O)N(c4ccc(OC(F)(F)C(F)(F)F)cc4)CC3=O)cc2)[C@@H]1OC [Compound 243] | B (either (1) the compound was tested and less than 50 percent mortality was observed or (2) the compound was not tested) |  | B (either (1) the compound was tested and less than 50 percent mortality was observed or (2) the compound was not tested) |  | B (either (1) the compound was tested and less than 50 percent mortality was observed or (2) the compound was not tested) |
| CO[C@H]1[C@H](C)O[C@H](OC(=O)Nc2ccc(-c3ncn(-c4ccc(OC(F)(F)C(F)(F)F)cc4)n3)cc2)C[C@@H]1OC [Compound 245] | B (either (1) the compound was tested and less than 50 percent mortality was observed or (2) the compound was not tested) |  | A (the compound was tested and at least 50 percent mortality was observed) |  | B (either (1) the compound was tested and less than 50 percent mortality was observed or (2) the compound was not tested) |
| CCO[C@@H]1[C@@H](OC)[C@H](C)O[C@@H](OC(=O)Nc2ccc(-c3ccc(-c4ccc(OC(F)(F)F)cc4)nn3)cc2)[C@@H]1OC [Compound 248] | B (either (1) the compound was tested and less than 50 percent mortality was observed or (2) the compound was not tested) |  | B (either (1) the compound was tested and less than 50 percent mortality was observed or (2) the compound was not tested) |  | B (either (1) the compound was tested and less than 50 percent mortality was observed or (2) the compound was not tested) |
| CCO[C@@H]1[C@@H](OC)[C@H](C)O[C@@H](OC(=O)Nc2ccc(-c3nn(-c4ccc(C(F)(F)F)cc4)c(=O)o3)cc2)[C@@H]1OC [Compound 249] | B (either (1) the compound was tested and less than 50 percent mortality was observed or (2) the compound was not tested) |  | B (either (1) the compound was tested and less than 50 percent mortality was observed or (2) the compound was not tested) |  | B (either (1) the compound was tested and less than 50 percent mortality was observed or (2) the compound was not tested) |
